The record followed here is PubChem BioAssay (NCI).

Some test systems named below: ACHN renal; EKVX NSCLC; IGROV1 ovarian; MDA-MB-231 breast; MDA-MB-435; MOLT-4 leukemia; NCI-H522 lung; RPMI-8226 leukemia.
Assay in all cases: inhibition of tumour cell growth, NCI panel, 48 h

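Method: 48-hour compound exposure of cells in 96-well plates, five concentrations, linear interpolation of endpoints. GI50 = concentration required for 50% inhibition of growth. TGI: concentration producing complete growth inhibition.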 Some results are limits rather than exact numbers.

As for `Nc1nc2ccc(CNc3ccc(C(=O)NC(CC(=O)O)C(=O)O)cc3)cc2c(=O)[nH]1` (centres undefined), the GI50 with ACHN renal is 3.6 µM; in the test on IGROV1 ovarian, 3.32 µM; in the test on MDA-MB-231 breast, more than 100 µM; in the test with MDA-MB-435 it was 0.514 µM; in the test with MOLT-4 leukemia it was 16.3 µM; with NCI-H522 lung it was 14.4 µM. Further, the GI50 in the test on RPMI-8226 leukemia was 9.23 µM. Besides, the TGI with ACHN renal, in the test on EKVX NSCLC, in the test with IGROV1 ovarian, in the test with MDA-MB-231 breast, in the test with MDA-MB-435 and in the test with MOLT-4 leukemia was more than 100 µM in each case. Besides, the TGI with NCI-H522 lung and in the test on RPMI-8226 leukemia was more than 100 µM each time.

As to `C[n+]1cccc(NC(=O)c2ccc3ccc4ccc(C(=O)Nc5ccc[n+](C)c5)nc4c3n2)c1`, the GI50 with ACHN renal was 4.75 µM; with EKVX NSCLC, 5.08 µM; in the test on IGROV1 ovarian, 1.51 µM; with MDA-MB-231 breast it was 2.41 µM; with MDA-MB-435, 6.2 µM; in the test with MOLT-4 leukemia, 21.3 µM. The results for the GI50 in the test on NCI-H522 lung and in the test on RPMI-8226 leukemia were 0.645 µM and 2.99 µM, respectively. Moreover, the TGI was more than 100 µM in the test on ACHN renal; more than 100 µM with EKVX NSCLC; more than 100 µM in the test with IGROV1 ovarian; more than 52.4 µM in the test with MDA-MB-231 breast; more than 100 µM with MDA-MB-435; more than 100 µM in the test with MOLT-4 leukemia. In addition, the TGI is 23 µM in the test with NCI-H522 lung and more than 100 µM in the test with RPMI-8226 leukemia.

On to `COc1cccc2nc(Nc3cccc(NC(=O)c4ccc(N5CCN(C)CC5)c(C(F)(F)F)c4)c3)ccc12`, for which the GI50 with ACHN renal was 1.53 µM; in the test with EKVX NSCLC, 1.83 µM; in the test with IGROV1 ovarian it was 1.25 µM; in the test on MDA-MB-231 breast, 1.55 µM; with MDA-MB-435 it was 0.878 µM; in the test on MOLT-4 leukemia, 0.876 µM. Further, the values for the GI50 with NCI-H522 lung and in the test on RPMI-8226 leukemia were 1.04 µM and 1.65 µM, respectively. Besides, the TGI in the test with ACHN renal was 4.57 µM; with EKVX NSCLC it was 6.92 µM; in the test on IGROV1 ovarian, 4.24 µM; with MDA-MB-231 breast, 5.88 µM; with MDA-MB-435, 1.73 µM; with MOLT-4 leukemia it was 2.27 µM. The TGI is 2 µM in the test with NCI-H522 lung and 6.44 µM in the test on RPMI-8226 leukemia.

As to `Cc1[nH]c(C(=O)Nc2cccc(OC3CCNCC3)c2)c(Cl)c1Cl`, the GI50 in the test on ACHN renal is 1.75 µM; with EKVX NSCLC it was 1.57 µM; in the test with IGROV1 ovarian, 1.76 µM; with MDA-MB-231 breast, 1.74 µM; in the test on MDA-MB-435, 1.81 µM; in the test on MOLT-4 leukemia, 1.94 µM. Also, the GI50 in the test with NCI-H522 lung is 1.86 µM; with RPMI-8226 leukemia, 2.05 µM. Further, the TGI is 3.17 µM in the test on ACHN renal; 3.39 µM with EKVX NSCLC; 3.37 µM in the test on IGROV1 ovarian; 3.45 µM in the test on MDA-MB-231 breast; 3.3 µM in the test on MDA-MB-435; 4.12 µM in the test on MOLT-4 leukemia. Also, the results for the TGI in the test with NCI-H522 lung and with RPMI-8226 leukemia were 4.02 µM and 4.59 µM, respectively.

`C=C(C(=O)c1ccccc1)C(NC(C)(C)C)c1ccccc1` (centres undefined): the GI50 with ACHN renal is 1.59 µM; in the test on EKVX NSCLC, 3.53 µM; in the test on IGROV1 ovarian, 2.3 µM; in the test on MDA-MB-231 breast it was 2.06 µM; in the test on MDA-MB-435, 2.11 µM; with MOLT-4 leukemia it was 1.76 µM. Further, the results for the GI50 in the test on NCI-H522 lung and with RPMI-8226 leukemia were 0.308 µM and 1.84 µM, respectively. Moreover, the TGI in the test on ACHN renal was 4.51 µM; with EKVX NSCLC, 13.7 µM; with IGROV1 ovarian, 6.9 µM; with MDA-MB-231 breast, 4.84 µM; with MDA-MB-435 it was 11 µM; in the test on MOLT-4 leukemia, 21.9 µM. Further, the TGI with NCI-H522 lung was 1.53 µM; in the test with RPMI-8226 leukemia, 6.44 µM.

In the case of `COC(=O)C1C(C(=O)O)C2(c3ccccc3)C(=O)C1(c1ccccc1)C(c1ccc(OC)cc1)=C2c1ccc(OC)cc1` (centres undefined), the GI50 with ACHN renal was 36.6 µM; in the test with EKVX NSCLC it was 18.6 µM; in the test on IGROV1 ovarian it was 19.9 µM; with MDA-MB-231 breast, 24 µM; in the test with MDA-MB-435, 28.8 µM; in the test on MOLT-4 leukemia, 18 µM. Besides, the GI50 is 17 µM with NCI-H522 lung and 18.2 µM in the test with RPMI-8226 leukemia. Besides, the TGI is more than 100 µM in the test with ACHN renal; 52.7 µM with EKVX NSCLC; 45.8 µM in the test on IGROV1 ovarian; 54.5 µM with MDA-MB-231 breast; 60.7 µM with MDA-MB-435; 43.4 µM in the test with MOLT-4 leukemia. Further, the TGI in the test with NCI-H522 lung is 41.9 µM; in the test on RPMI-8226 leukemia it was 48.5 µM.

On to `CCCCCCCCCN=C(N)c1ccc(N2CCN(c3ccc(C(N)=NCCCCCCCCC)cc3)CC2)cc1`, for which the GI50 was 2.19 µM in the test with ACHN renal; 1.95 µM with EKVX NSCLC; 1.66 µM in the test with IGROV1 ovarian; 1.41 µM in the test on MDA-MB-231 breast; 1.74 µM in the test with MDA-MB-435; 1.58 µM with MOLT-4 leukemia. The GI50 was 2.36 µM with NCI-H522 lung and 1.96 µM in the test with RPMI-8226 leukemia. The TGI in the test with ACHN renal was 12.7 µM; in the test on EKVX NSCLC, 7.72 µM; with IGROV1 ovarian, more than 50 µM; with MDA-MB-231 breast it was 5.59 µM; in the test on MDA-MB-435, 5.35 µM; in the test with MOLT-4 leukemia, more than 50 µM. Also, the figures for the TGI in the test on NCI-H522 lung and in the test with RPMI-8226 leukemia were 21.4 µM and more than 50 µM, respectively.

Take `CNC(=O)/C=C/C1=CN2C(=O)c3ccc(C)c(O)c3NC(OC)C2C1` (centres undefined): the TGI with EKVX NSCLC is less than 0.0344 µM; in the test with IGROV1 ovarian it was more than 100 µM; in the test on MDA-MB-231 breast, less than 0.0397 µM; with MDA-MB-435, less than 0.0176 µM; with MOLT-4 leukemia it was more than 8.39 µM; in the test with NCI-H522 lung it was less than 0.0169 µM. The compound also showed a TGI in the test with RPMI-8226 leukemia of 16.2 µM.

Turning to `CCOC(=O)C1=C(C)NC2SC(=O)/C(=C\c3cccc(Cl)c3)N2C1c1ccccc1` (centres undefined), the GI50 with ACHN renal, with EKVX NSCLC, in the test on IGROV1 ovarian, with MDA-MB-231 breast, with MDA-MB-435 and in the test on NCI-H522 lung was more than 100 µM each time. For the same compound, the GI50 in the test on RPMI-8226 leukemia was more than 100 µM. In addition, the TGI in the test with ACHN renal, in the test with EKVX NSCLC, in the test with IGROV1 ovarian, with MDA-MB-231 breast, with MDA-MB-435 and with NCI-H522 lung was more than 100 µM in each case. Further, in the test with RPMI-8226 leukemia, the TGI is more than 100 µM.

For the compound `CCOC(=O)C#Cc1cccc(C#CC(=O)OCC)c1`, the TGI with ACHN renal worked out at 11.6 µM; in the test on EKVX NSCLC, 2.42 µM; in the test on IGROV1 ovarian it was 32.5 µM; in the test with MDA-MB-231 breast, 11.2 µM; in the test on MDA-MB-435, 9.52 µM; in the test on NCI-H522 lung, 30.9 µM. The compound also showed a TGI in the test on RPMI-8226 leukemia of 13 µM.
